In US20130030012A1, “COMPOUNDS” (Glaxo Group Limited, priority 2011, published 2013):
Where two headings read alike, the source gives them in different places.

Tests used:
Lp-PLA2 in human plasma = molecular target: T1, Lp-PLA2 in human plasma (Homo sapiens, UniProt Q13093); experiment: Lp-PLA2 human plasma assay (Thio-PAF assay); type: biochemical; settings: pooled human plasma; read-out: pIC50 values in the thio-PAF assay (converted)
T1 construct: from tissue; host or cells: pooled human plasma
T1 sequence (Q13093 22-441): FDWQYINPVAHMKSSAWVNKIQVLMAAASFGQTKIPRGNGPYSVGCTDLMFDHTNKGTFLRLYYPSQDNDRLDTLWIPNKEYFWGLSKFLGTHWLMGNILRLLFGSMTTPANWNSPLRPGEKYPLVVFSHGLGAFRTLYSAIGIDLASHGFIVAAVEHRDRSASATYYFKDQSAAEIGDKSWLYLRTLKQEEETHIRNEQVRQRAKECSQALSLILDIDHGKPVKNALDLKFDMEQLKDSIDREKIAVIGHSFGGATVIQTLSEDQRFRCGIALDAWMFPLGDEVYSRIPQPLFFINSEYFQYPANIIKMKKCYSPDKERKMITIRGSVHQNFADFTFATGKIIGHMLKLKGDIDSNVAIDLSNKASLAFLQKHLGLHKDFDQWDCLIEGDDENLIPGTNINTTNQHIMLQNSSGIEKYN
Description: The human plasma assay utilizes a thioester analog of PAF (phosphatidylcholine), where hydrolysis yields to the formation of a phospholipid containing a free thiol group. The amount of thiol is quantitated continuously by reacting with CPM (7-diethylamino-3-(4′-maleimidylphenyl)-4-methylcoumarin), a maleimide which increases in fluoresence after Michael addition of thiols. This assay may detect the activity of Lp-PLA2 in human plasma, as determined by specific inhibition by Lp-PLA2 inhibitors.
The thio-PAF assay was run as a quenched 15 μL assay. Compounds source plate was prepared by making 1:3 (by volume) serial dilution of the compounds into pure DMSO on 384-well microplate. 0.01 μL of compounds on compound source plate were transferred to 384 well Greiner 784076 (black) low-volume plates by ECHO liquid dispenser. 8 μL pooled human plasma, which was previously aliquoted and frozen, was added. Plates were centrifuged for 10 sec at 500 rpm. After 30 minutes preincubation, 2 μL of substrate solution comprising 2.5 mM 2-thio-PAF [from ethanol stock], […] CPM [from a DMSO stock] and 3.2 mM NEM (N-ethylmaleimide) [made fresh daily in DMSO] in assay buffer of 50 mM HEPES, pH 7.4, 150 mM NaCl, 1 mM CHAPS was added to 384 well Greiner 784076 (black) low-volume plates by BRAVO liquid handling station. After 2 mins, reaction was quenched with 5 μL of 5% aqueous trifluoroacetic acid (TFA). Plates were covered to protect from light and incubated for 40 min at room temperature. Plates were read at ex: 380/em: 485 using—Envision microplate reader. pIC50 data, curve and QC analysis was conducted by using XLFit module in Excel.

[1] = molecular target: T2, recombinant human Lp-PLA2 (Homo sapiens, UniProt Q13093); experiment: Recombinant human Lp-PLA2 assay (rhLp-PLA2, PED6 assay); type: biochemical; settings: upper limit for pIC50 in this assay is 9.3
T2 sequence (Q13093 22-441): T1 sequence (Q13093 22-441)
Description: (1) Recombinant Human Lp-PLA2 Assay (rhLp-PLA2) (Also Referred to as “PED6” Assay)
N-((6-(2,4-dinitrophenyl)amino)-hexanoyl)-2-(4,4-difluoro-5,7-dimethyl-4-bora-3a,4a-diaza-s-indacene-3-pentanoyl)-1-hexadecanoyl-sn-glycero-3-phosphoethanolamine, triethylammonium salt (PED6) is a commercially available fluorescently-labeled phospholipid, which is commercially available from Invitrogene and Molecular Probes. There is a quenching […] and a Bodipy fluorescein (FL) group in the sn2 position. Upon cleavage with Lp-PLA2, the Bodipy FL group is liberated and then may result in an increase in fluorescence. Inhibitors of Lp-PLA2 therefore prevent this cleavage and no fluorescent increase is observed.
The PED6 assay was run as an unquenched 10 μL assay. The source plate containing the compounds to be tested was prepared by making 1:3 (by volume) serial dilution of the compounds within DMSO on 384-well microplate. Then, 0.01 μL of the compounds on compound source plate were transferred into 384 well Greiner 784076 (black) plates using ECHO liquid dispenser. 5 μL of recombinant human Lp-PLA2 enzyme (4 nM (or 110 pM) rhLp-PLA2 in assay buffer of 50 mM HEPES, pH 7.4, 150 mM NaCl, 1 mM CHAPS) was added to each well of the plate. Plates were centrifuged for 10 sec at 500 rpm. After 30 minutes preincubation, 5 μL of substrate ([…] (or 5 μM) PED6 [from 5 mM DMSO stock] in assay buffer of 50 mM HEPES, pH 7.4, 150 mM NaCl, 1 mM CHAPS) was added to 384 well Greiner 784076 (black) plates. Plates were centrifuged for 10 sec at 500 rpm. The plate was covered to protect it from light and incubated for 20 min at room temperature. The plates were read for fluorescence intensity at ex: 480/em: 540 using ViewLux microplate imager for Envision spectrofluoroimeters pIC50 data, curve and QC analysis was conducted by using XL fit module in Excel.
The compounds described below were tested generally according to the PED6 assay described above.

[2] = read-out: pIC50 values in the PED6 assay (converted)
[3] = Table 1, read-out: rhLp-PLA2 (PED6 assay) (pIC50) (converted)

| IC50 (Lp-PLA2 in human plasma) [nM] | IC50 [1, 2] [nM] | IC50 [1, 3] [nM] | Structure (SMILES) |
| --- | --- | --- | --- |
| ≤ 100 | ≤ 10 |  | CN1CCCn2c1cc(OCc1ccc(Oc3ccc(F)c(Cl)c3)c(F)c1)nc2=O [Example 15, 8-((4-(3-chloro-4-fluorophenoxy)-3-fluorobenzyl)oxy)-1-methyl-3,4-dihydro-1H-pyrimido[1,6-a]pyrimidin-6(2H)-one] |
| ≤ 100 | ≤ 10 |  | CN1CCCn2c1cc(OCc1ccc(Oc3cccc(Cl)c3)c(F)c1)nc2=O [Example 16, 8-((4-(3-chlorophenoxy)-3-fluorobenzyl)oxy)-1-methyl-3,4-dihydro-1H-pyrimido[1,6-a]pyrimidin-6(2H)-one] |
| ≤ 1000 | ≤ 10 |  | CN1CCCn2c1cc(OCc1ccc(Oc3ccc(F)c(Cl)c3)cc1)nc2=O [Example 17, 8-((4-(3-chloro-4-fluorophenoxy)benzyl)oxy)-1-methyl-3,4-dihydro-1H-pyrimido[1,6-a]pyrimidin-6(2H)-one] |
| ≤ 100 | ≤ 10 | 2 | CN1CCCn2c1cc(OCc1cc(F)c(F)c(F)c1)nc2=O [Example 21, 1-methyl-8-((3,4,5-trifluorobenzyl)oxy)-3,4-dihydro-1H-pyrimido[1,6-a]pyrimidin-6(2H)-one] |
| ≤ 1000 | ≤ 10 |  | CN1CCCn2c1cc(OCc1ccc(Oc3cccc(F)c3)c(F)c1)nc2=O [Example 25, 8-((3-fluoro-4-(3-fluorophenoxy)benzyl)oxy)-1-methyl-3,4-dihydro-1H-pyrimido[1,6-a]pyrimidin-6(2H)-one] |
| ≤ 100 | ≤ 10 | 2.51 | CN1CCCn2c1cc(OCc1ccc(Oc3cccc(C(F)(F)F)c3)c(F)c1)nc2=O [Example 28, 8-((3-fluoro-4-(3-(trifluoromethyl)phenoxy)benzyl)oxy)-1-methyl-3,4-dihydro-1H-pyrimido[1,6-a]pyrimidin-6(2H)-one] |
| ≤ 100 | ≤ 10 |  | CN1CCCn2c1cc(OCc1ccc(Oc3ccc(C(F)(F)F)cc3)c(C#N)c1)nc2=O [Example 29, 5-(((1-methyl-6-oxo-2,3,4,6-tetrahydro-1H-pyrimido[1,6-a]pyrimidin-8-yl)oxy)methyl)-2-(4-(trifluoromethyl)phenoxy)benzonitrile] |
| ≤ 100 | ≤ 10 |  | CN1CCCn2c1cc(OCc1ccc(Oc3ccc(F)cc3)c(C#N)c1)nc2=O [Example 30, 2-(4-fluorophenoxy)-5-(((1-methyl-6-oxo-2,3,4,6-tetrahydro-1H-pyrimido[1,6-a]pyrimidin-8-yl)oxy)methyl)benzonitrile] |
| ≤ 1000 | ≤ 10 |  | CN1CCCn2c1cc(OCc1ccc(Oc3cccc(C(F)(F)F)n3)c(F)c1)nc2=O [Example 32, 8-((3-fluoro-4-((6-(trifluoromethyl)pyridin-2-yl)oxy)benzyl)oxy)-1-methyl-3,4-dihydro-1H-pyrimido[1,6-a]pyrimidin-6(2H)-one] |
| ≤ 100 | ≤ 10 |  | CN1CCCn2c1cc(OCc1ccc(Oc3ccc(F)c(F)c3)c(C#N)c1)nc2=O [Example 34, 2-(3,4-difluorophenoxy)-5-(((1-methyl-6-oxo-2,3,4,6-tetrahydro-1H-pyrimido[1,6-a]pyrimidin-8-yl)oxy)methyl)benzonitrile] |
| ≤ 100 | ≤ 10 |  | CC(C)N1CCCn2c1cc(OCc1ccc(Oc3ccc(C(F)(F)F)nc3)c(F)c1)nc2=O [Example 38, 8-((3-fluoro-4-((6-(trifluoromethyl)pyridin-3-yl)oxy)benzyl)oxy)-1-isopropyl-3,4-dihydro-1H-pyrimido[1,6-a]pyrimidin-6(2H)-one] |
| ≤ 100 | ≤ 10 | 10 | CC(C)N1CCCn2c1cc(OCc1ccc(F)c(F)c1)nc2=O [Example 40, 8-((3,4-difluorobenzyl)oxy)-1-isopropyl-3,4-dihydro-1H-pyrimido[1,6-a]pyrimidin-6(2H)-one] |
| ≤ 100 | ≤ 10 | 5.01 | CC(C)N1CCCn2c1cc(OCc1cc(F)c(F)c(F)c1)nc2=O [Example 42, isopropyl-8-((3,4,5-trifluorobenzyl)oxy)-3,4-dihydro-1H-pyrimido[1,6-a]pyrimidin-6(2H)-one] |
| ≤ 100 | ≤ 1 | 1 | N#Cc1cc(COc2cc3n(c(=O)n2)CCCN3)ccc1Oc1cccc(C(F)(F)F)c1 [Example 53, 5-(((6-oxo-2,3,4,6-tetrahydro-1H-pyrimido[1,6-a]pyrimidin-8-yl)oxy)methyl)-2-(3-(trifluoromethyl)phenoxy)benzonitrile] |
| ≤ 1000 | ≤ 10 |  | CN1CCCn2c1cc(OCCc1ccc(Oc3ccc(C(F)(F)F)c(Cl)c3)cn1)nc2=O [Example 54, 8-(2-(5-(3-chloro-4-(trifluoromethyl)phenoxy)pyridin-2-yl)ethoxy)-1-methyl-3,4-dihydro-1H-pyrimido[1,6-a]pyrimidin-6(2H)-one] |
| ≤ 100 | ≤ 1 |  | CN1CCCn2c1cc(OCCc1ccc(Oc3ccc(Cl)c(C(F)(F)F)c3)cc1)nc2=O [Example 55, 8-(4-(4-chloro-3-(trifluoromethyl)phenoxy)phenethoxy)-1-methyl-3,4-dihydro-1H-pyrimido[1,6-a]pyrimidin-6(2H)-one] |
| ≤ 100 | ≤ 1 |  | Cc1ccc(Oc2ccc(COc3cc4n(c(=O)n3)CCCN4C)cc2C#N)cn1 [Example 56, 5-(((1-methyl-6-oxo-2,3,4,6-tetrahydro-1H-pyrimido[1,6-a]pyrimidin-8-yl)oxy)methyl)-2-((6-methylpyridin-3-yl)oxy)benzonitrile] |
| ≤ 100 | ≤ 1 | < 0.501 | CN1CCCn2c1cc(OCc1ccc(Oc3cc(F)cc(F)c3)c(F)c1)nc2=O [Example 58, 8-((4-(3,5-difluorophenoxy)-3-fluorobenzyl)oxy)-1-methyl-3,4-dihydro-1H-pyrimido[1,6-a]pyrimidin-6(2H)-one] |
| ≤ 1000 | ≤ 10 |  | CN1CCCn2c1cc(OCc1ccc(Oc3ccc(F)cc3)c(F)c1)nc2=O [Example 74, 8-((3-fluoro-4-(4-fluorophenoxy)benzyl)oxy)-1-methyl-3,4-dihydro-1H-pyrimido[1,6-a]pyrimidin-6(2H)-one] |
| ≤ 100 | ≤ 1 | < 0.501 | O=c1nc(OCc2cc(F)c(Oc3ccc(C(F)(F)F)nc3)c(F)c2)cc2n1CCCN2 [Example 75, 8-((3,5-difluoro-4-((6-(trifluoromethyl)pyridin-3-yl)oxy)benzyl)oxy)-3,4-dihydro-1H-pyrimido[1,6-a]pyrimidin-6(2H)-one] |
